Results: paper PMC12749626, “Expediting hit-to-lead progression in drug discovery through reaction prediction and multi-dimensional optimization” (Nature Communications, 2025)

Key:
GSK-3B = GSK-3B (Homo sapiens, UniProt P49841); conditions: 10 uM; n=2
ANDROGEN REC. = ANDROGEN REC. (Homo sapiens, UniProt P10275); conditions: 10 uM; n=2
NORE[…]. = NORE[…]. (Homo sapiens, UniProt P23975); conditions: 10 uM; n=2
DOPAMINE D1 REC. = DOPAMINE D1 REC. (Homo sapiens, UniProt P21728); conditions: 10 uM; n=2
PHOSPHODIESTERASE 3B = PHOSPHODIESTERASE 3B (Homo sapiens, UniProt Q13370); conditions: 10 uM; n=2
Chain of UniProt Q13370 (Q13370 whole entry): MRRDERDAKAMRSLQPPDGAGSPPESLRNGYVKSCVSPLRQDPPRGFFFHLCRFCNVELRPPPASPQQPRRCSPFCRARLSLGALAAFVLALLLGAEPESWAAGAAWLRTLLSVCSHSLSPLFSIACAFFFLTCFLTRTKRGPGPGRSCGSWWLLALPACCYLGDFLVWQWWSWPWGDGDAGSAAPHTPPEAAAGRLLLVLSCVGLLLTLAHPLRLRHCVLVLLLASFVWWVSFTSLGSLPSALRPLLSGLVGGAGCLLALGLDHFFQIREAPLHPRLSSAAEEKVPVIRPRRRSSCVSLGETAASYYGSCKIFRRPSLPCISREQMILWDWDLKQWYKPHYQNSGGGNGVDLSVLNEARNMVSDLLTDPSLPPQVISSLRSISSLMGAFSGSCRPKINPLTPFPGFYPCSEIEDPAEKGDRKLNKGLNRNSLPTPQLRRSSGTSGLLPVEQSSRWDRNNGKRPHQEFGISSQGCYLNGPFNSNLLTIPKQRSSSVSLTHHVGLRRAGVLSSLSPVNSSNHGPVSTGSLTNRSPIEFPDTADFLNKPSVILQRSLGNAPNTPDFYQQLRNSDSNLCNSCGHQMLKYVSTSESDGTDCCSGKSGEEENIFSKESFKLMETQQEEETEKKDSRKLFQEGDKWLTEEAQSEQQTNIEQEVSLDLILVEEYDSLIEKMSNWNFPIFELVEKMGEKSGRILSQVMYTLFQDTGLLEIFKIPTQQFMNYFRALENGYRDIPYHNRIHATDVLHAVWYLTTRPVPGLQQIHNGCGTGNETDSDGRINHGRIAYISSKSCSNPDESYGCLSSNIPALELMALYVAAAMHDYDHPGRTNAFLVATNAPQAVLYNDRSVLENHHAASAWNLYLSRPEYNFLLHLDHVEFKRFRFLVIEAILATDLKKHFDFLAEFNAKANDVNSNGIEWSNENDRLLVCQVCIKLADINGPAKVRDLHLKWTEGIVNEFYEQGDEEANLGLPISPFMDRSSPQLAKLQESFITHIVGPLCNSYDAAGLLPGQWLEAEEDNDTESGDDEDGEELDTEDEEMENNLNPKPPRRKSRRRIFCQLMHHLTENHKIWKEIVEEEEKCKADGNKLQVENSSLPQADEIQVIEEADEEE

human MAGL = molecular target: T1, human MAGL (Homo sapiens, UniProt Q99685); conditions: = pIC50 - cLogP
T1 sequence (Q99685 1-303): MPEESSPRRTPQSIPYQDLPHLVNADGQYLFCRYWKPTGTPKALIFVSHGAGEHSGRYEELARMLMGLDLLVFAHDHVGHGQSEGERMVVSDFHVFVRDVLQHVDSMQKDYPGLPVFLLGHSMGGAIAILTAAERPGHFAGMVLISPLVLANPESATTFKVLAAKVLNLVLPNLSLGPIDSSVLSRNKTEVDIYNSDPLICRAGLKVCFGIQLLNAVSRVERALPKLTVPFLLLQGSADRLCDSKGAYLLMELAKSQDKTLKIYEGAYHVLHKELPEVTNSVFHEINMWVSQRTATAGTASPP

α2A-ADRENOCEPTOR = α2A-ADRENOCEPTOR (Homo sapiens, UniProt P08913); conditions: 10 uM; n=2
Chain of UniProt P08913 (P08913 whole entry): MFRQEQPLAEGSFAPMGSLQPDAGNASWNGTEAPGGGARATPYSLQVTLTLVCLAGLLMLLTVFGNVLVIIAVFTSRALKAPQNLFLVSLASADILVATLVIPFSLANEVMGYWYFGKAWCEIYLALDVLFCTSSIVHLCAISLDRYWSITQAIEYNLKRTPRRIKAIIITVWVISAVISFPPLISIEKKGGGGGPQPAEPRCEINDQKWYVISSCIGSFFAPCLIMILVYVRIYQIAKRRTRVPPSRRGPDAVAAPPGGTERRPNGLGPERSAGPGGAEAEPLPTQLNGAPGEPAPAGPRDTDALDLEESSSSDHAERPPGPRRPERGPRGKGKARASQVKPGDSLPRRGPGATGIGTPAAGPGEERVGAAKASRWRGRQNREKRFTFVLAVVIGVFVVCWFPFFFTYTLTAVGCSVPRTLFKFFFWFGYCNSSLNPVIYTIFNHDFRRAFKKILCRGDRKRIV

ANGIOTENSIN II REC. 1 = ANGIOTENSIN II REC. 1 (Homo sapiens, UniProt P30556); conditions: 10 uM; n=2
Chain of ANGIOTENSIN II REC. 1 (P30556 whole entry): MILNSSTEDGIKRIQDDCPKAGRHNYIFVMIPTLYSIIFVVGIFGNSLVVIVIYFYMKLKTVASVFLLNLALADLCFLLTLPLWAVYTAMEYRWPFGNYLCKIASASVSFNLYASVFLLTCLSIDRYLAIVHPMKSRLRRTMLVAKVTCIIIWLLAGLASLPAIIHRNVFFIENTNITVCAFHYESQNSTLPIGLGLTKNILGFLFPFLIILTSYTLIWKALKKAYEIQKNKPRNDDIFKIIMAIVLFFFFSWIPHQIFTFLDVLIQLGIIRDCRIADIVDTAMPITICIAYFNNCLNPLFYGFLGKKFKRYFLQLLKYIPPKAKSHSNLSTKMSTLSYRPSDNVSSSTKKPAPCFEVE

ACETYLCHOLINESTERASE = ACETYLCHOLINESTERASE (Homo sapiens, UniProt P22303); conditions: 10 uM; n=2
5HT2A = 5HT2A (Homo sapiens, UniProt P28223); conditions: 10 uM; n=2
5HT2B = 5HT2B (Homo sapiens, UniProt P41595); conditions: 10 uM; n=2
Chain of 5HT2B (P41595 whole entry): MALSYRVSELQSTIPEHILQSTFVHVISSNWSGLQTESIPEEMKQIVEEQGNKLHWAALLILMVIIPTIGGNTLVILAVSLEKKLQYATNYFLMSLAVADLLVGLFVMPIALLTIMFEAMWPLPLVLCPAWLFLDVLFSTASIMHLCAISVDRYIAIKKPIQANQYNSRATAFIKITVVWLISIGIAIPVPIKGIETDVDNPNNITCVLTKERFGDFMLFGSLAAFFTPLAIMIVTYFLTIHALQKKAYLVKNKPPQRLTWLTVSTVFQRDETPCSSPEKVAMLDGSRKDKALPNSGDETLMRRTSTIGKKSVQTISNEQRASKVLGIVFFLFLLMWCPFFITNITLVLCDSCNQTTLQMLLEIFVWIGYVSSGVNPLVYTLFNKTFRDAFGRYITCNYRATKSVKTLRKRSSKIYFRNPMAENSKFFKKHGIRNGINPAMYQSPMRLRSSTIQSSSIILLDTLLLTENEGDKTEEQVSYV

[…]. M1 = […]. M1 (Homo sapiens, UniProt P11229); conditions: 10 uM; n=2
XANTHINE OXIDASE = XANTHINE OXIDASE (Bos taurus, UniProt P80457); conditions: 10 uM; n=2
HISTAMINE H1 REC. = HISTAMINE H1 REC. (Homo sapiens, UniProt P35367); conditions: 10 uM; n=2
PHOSPHODIESTERASE 4D2 = PHOSPHODIESTERASE 4D2 (Homo sapiens, UniProt Q08499); conditions: 10 uM; n=2
5HT3 = 5HT3 (Homo sapiens, UniProt P46098); conditions: 10 uM; n=2
C[…]. CB1 = C[…]. CB1 (Homo sapiens, UniProt P21554); conditions: 10 uM; n=2
α1A-ADRENOCEPTOR = α1A-ADRENOCEPTOR (Homo sapiens, UniProt P35348); conditions: 10 uM; n=2
GLUC[…]. = GLUC[…]. (Homo sapiens, UniProt P04150); conditions: 10 uM; n=2
Chain of GLUC[…]. (P04150 whole entry): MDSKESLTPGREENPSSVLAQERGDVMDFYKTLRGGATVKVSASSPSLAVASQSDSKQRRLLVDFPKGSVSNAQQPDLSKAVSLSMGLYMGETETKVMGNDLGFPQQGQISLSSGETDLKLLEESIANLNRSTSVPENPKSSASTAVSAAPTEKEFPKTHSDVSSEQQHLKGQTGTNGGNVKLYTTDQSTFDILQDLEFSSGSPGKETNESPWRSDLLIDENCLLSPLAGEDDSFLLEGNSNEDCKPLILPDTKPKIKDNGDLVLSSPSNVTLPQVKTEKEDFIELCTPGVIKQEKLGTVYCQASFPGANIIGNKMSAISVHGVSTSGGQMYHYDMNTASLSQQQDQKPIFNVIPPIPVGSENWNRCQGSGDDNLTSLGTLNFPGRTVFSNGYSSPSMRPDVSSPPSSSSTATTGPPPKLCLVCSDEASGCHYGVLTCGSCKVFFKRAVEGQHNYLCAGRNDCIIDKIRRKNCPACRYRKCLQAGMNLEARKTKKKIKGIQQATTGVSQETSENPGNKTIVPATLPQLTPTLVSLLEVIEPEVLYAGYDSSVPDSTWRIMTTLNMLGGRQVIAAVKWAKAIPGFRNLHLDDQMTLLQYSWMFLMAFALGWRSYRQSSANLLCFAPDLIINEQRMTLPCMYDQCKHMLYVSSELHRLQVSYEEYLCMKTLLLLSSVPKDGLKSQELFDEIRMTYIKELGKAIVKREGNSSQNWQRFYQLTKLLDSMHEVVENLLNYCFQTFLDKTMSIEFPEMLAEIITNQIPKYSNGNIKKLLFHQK

5HT1A = 5HT1A (Homo sapiens, UniProt P08908); conditions: 10 uM; n=2
Chain of 5HT1A (P08908 whole entry): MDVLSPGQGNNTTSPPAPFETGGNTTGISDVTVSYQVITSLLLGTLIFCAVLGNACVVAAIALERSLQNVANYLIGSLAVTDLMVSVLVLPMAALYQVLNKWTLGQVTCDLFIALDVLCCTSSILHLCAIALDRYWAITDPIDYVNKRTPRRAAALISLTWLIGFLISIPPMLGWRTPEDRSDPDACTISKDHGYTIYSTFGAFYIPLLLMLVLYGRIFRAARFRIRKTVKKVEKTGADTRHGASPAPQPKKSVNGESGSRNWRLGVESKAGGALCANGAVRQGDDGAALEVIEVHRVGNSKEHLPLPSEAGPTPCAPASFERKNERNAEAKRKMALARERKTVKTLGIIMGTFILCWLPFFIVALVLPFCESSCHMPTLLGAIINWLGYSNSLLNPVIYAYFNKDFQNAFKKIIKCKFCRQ

HIV-1 PROTEASE = HIV-1 PROTEASE (Human immunodeficiency virus type 1 group M subtype B, UniProt P04585); conditions: 10 uM; n=2
β2-ADRENOCEPTOR = β2-ADRENOCEPTOR (Homo sapiens, UniProt P07550); conditions: 10 uM; n=2
[…]. M2 = […]. M2 (Homo sapiens, UniProt P08172); conditions: 10 uM; n=2
A[…]. ENZ. = A[…]. ENZ. (Homo sapiens, UniProt P12821); conditions: 10 uM; n=2
GSK-3A = GSK-3A (Homo sapiens, UniProt P49840); conditions: 10 uM; n=2
κ OPIOID REC. = κ OPIOID REC. (Homo sapiens, UniProt P41145); conditions: 10 uM; n=2
CDK2 = CDK2 (Homo sapiens, UniProt P24941); conditions: 10 uM; n=2
PPARγ = PPARγ (Homo sapiens, UniProt P37231); conditions: 10 uM; n=2
Chain of PPARγ (P37231 whole entry): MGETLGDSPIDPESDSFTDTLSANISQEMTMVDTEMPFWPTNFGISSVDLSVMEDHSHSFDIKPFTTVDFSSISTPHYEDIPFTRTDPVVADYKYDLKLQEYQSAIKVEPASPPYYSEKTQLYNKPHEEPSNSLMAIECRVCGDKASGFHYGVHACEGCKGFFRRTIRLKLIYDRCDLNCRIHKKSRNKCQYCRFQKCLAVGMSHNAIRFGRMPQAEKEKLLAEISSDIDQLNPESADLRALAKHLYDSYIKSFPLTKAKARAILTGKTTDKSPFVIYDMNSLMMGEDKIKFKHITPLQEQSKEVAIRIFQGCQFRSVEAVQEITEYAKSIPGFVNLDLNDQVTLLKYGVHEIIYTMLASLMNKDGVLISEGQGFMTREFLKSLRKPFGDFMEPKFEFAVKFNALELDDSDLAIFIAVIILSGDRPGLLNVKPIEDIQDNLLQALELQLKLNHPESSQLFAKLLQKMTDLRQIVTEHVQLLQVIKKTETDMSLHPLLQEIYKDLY

DOPAMINE D2 REC. (short) = DOPAMINE D2 REC. (short) (Homo sapiens, UniProt P14416); conditions: 10 uM; n=2
PROSTAGLANDIN F REC. = PROSTAGLANDIN F REC. (Homo sapiens, UniProt P43088); conditions: 10 uM; n=2
SEROTONIN TRANSPORTER = SEROTONIN TRANSPORTER (Homo sapiens, UniProt P31645); conditions: 10 uM; n=2
HISTAMINE H2 REC. = HISTAMINE H2 REC. (Homo sapiens, UniProt P25021); conditions: 10 uM; n=2
μ OPIOID REC. = μ OPIOID REC. (Homo sapiens, UniProt P35372); conditions: 10 uM; n=2
Chain of μ OPIOID REC. (P35372 whole entry): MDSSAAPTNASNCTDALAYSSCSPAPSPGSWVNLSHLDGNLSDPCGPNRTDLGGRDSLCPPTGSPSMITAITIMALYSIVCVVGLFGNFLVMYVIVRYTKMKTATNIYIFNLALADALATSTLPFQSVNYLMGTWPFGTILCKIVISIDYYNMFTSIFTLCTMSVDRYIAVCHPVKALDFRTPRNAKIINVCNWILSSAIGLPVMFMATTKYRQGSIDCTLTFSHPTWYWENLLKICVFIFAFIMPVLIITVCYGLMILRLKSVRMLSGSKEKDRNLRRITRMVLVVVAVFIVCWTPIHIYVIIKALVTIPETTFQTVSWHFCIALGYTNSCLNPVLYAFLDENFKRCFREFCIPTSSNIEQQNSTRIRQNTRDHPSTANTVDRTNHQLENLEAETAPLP

ADENOSINE A3 REC. = ADENOSINE A3 REC. (Homo sapiens, UniProt P0DMS8); conditions: 10 uM; n=2
CHOLECYSTOKININ 1 REC. = CHOLECYSTOKININ 1 REC. (Homo sapiens, UniProt P32238); conditions: 10 uM; n=2
[1] = system: closely related brain hydrolases; conditions: activity-based protein profiling, mouse brain, 10 µM
CYCLO OXYGENASE 2 = CYCLO OXYGENASE 2 (Homo sapiens, UniProt P35354); conditions: 10 uM; n=2

Chain of GSK-3B (P49841 whole entry): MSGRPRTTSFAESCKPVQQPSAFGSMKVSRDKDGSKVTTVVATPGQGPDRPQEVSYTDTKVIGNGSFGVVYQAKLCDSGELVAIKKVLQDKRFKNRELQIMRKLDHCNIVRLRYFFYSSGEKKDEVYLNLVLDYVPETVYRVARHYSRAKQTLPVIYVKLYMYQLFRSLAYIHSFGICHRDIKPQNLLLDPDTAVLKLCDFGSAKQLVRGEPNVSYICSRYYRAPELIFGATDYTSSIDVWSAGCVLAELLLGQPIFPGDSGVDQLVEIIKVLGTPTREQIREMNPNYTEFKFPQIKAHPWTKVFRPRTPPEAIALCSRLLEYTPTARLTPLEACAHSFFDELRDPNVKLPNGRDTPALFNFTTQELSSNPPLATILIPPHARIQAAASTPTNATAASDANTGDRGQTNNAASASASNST

**Q.** Which “GSK-3B percent activity or inhibition compared to the assay reference” value (GSK-3B) does the source give for `O=C(c1ccc2nc(-c3cnccc3C3(C4CCC4)CC3)oc2c1)N1CCN(c2nc3nc(Cl)ccc3o2)CC1` [Compound 27] here?
**A.** -8%

**Q.** What about the “ANDROGEN REC. percent activity or inhibition compared to the assay reference” value (ANDROGEN REC.) of the same compound?
**A.** -6%

**Q.** What about the “NORE[…]. percent activity or inhibition compared to the assay reference” value (NORE[…].) of the same compound?
**A.** 28%

**Q.** What about the “DOPAMINE D1 REC. percent activity or inhibition compared to the assay reference” value (DOPAMINE D1 REC.) of the same compound?
**A.** -2%

**Q.** And the “PHOSPHODIESTERASE 3B percent activity or inhibition compared to the assay reference” value (PHOSPHODIESTERASE 3B)?
**A.** 1%

**Q.** What about the “Lipophilic efficiency (LipE)” value (human MAGL) of the same compound?
**A.** 3.72

**Q.** And the “α2A-ADRENOCEPTOR percent activity or inhibition compared to the assay reference” value (α2A-ADRENOCEPTOR)?
**A.** 0%

**Q.** And the “ANGIOTENSIN II REC. 1 percent activity or inhibition compared to the assay reference” value (ANGIOTENSIN II REC. 1)?
**A.** -1%

**Q.** And the “ACETYLCHOLINESTERASE percent activity or inhibition compared to the assay reference” value (ACETYLCHOLINESTERASE)?
**A.** -4%

**Q.** What about the “5HT2A percent activity or inhibition compared to the assay reference” value (5HT2A) of the same compound?
**A.** 12%

**Q.** What about the “5HT2B percent activity or inhibition compared to the assay reference” value (5HT2B) of the same compound?
**A.** 10%

**Q.** And the “[…]. M1 percent activity or inhibition compared to the assay reference” value ([…]. M1)?
**A.** 52%

**Q.** What about the “XANTHINE OXIDASE percent activity or inhibition compared to the assay reference” value (XANTHINE OXIDASE) of the same compound?
**A.** 6%

**Q.** And the “HISTAMINE H1 REC. percent activity or inhibition compared to the assay reference” value (HISTAMINE H1 REC.)?
**A.** 48%

**Q.** And the “PHOSPHODIESTERASE 4D2 percent activity or inhibition compared to the assay reference” value (PHOSPHODIESTERASE 4D2)?
**A.** -7%

**Q.** What about the “5HT3 percent activity or inhibition compared to the assay reference” value (5HT3) of the same compound?
**A.** -3%

**Q.** And the “C[…]. CB1 percent activity or inhibition compared to the assay reference” value (C[…]. CB1)?
**A.** 18%

**Q.** And the “α1A-ADRENOCEPTOR percent activity or inhibition compared to the assay reference” value (α1A-ADRENOCEPTOR)?
**A.** 5%

**Q.** What about the “GLUC[…]. percent activity or inhibition compared to the assay reference” value (GLUC[…].) of the same compound?
**A.** 5%

**Q.** What about the “5HT1A percent activity or inhibition compared to the assay reference” value (5HT1A) of the same compound?
**A.** 28%

**Q.** And the “HIV-1 PROTEASE percent activity or inhibition compared to the assay reference” value (HIV-1 PROTEASE)?
**A.** 34%

**Q.** And the “β2-ADRENOCEPTOR percent activity or inhibition compared to the assay reference” value (β2-ADRENOCEPTOR)?
**A.** -2%

**Q.** And the “[…]. M2 percent activity or inhibition compared to the assay reference” value ([…]. M2)?
**A.** 76%

**Q.** And the “A[…]. ENZ. percent activity or inhibition compared to the assay reference” value (A[…]. ENZ.)?
**A.** -12%

**Q.** What about the “GSK-3A percent activity or inhibition compared to the assay reference” value (GSK-3A) of the same compound?
**A.** 30%

**Q.** And the “κ OPIOID REC. percent activity or inhibition compared to the assay reference” value (κ OPIOID REC.)?
**A.** 48%

**Q.** What about the “CDK2 percent activity or inhibition compared to the assay reference” value (CDK2) of the same compound?
**A.** 0%

**Q.** And the “PPARγ percent activity or inhibition compared to the assay reference” value (PPARγ)?
**A.** 9%

**Q.** What about the “DOPAMINE D2 REC. (short) percent activity or inhibition compared to the assay reference” value (DOPAMINE D2 REC. (short)) of the same compound?
**A.** 13%

**Q.** What about the “PROSTAGLANDIN F REC. percent activity or inhibition compared to the assay reference” value (PROSTAGLANDIN F REC.) of the same compound?
**A.** 0%

**Q.** What about the “SEROTONIN TRANSPORTER percent activity or inhibition compared to the assay reference” value (SEROTONIN TRANSPORTER) of the same compound?
**A.** 1%

**Q.** And the “HISTAMINE H2 REC. percent activity or inhibition compared to the assay reference” value (HISTAMINE H2 REC.)?
**A.** -4%

**Q.** What about the “μ OPIOID REC. percent activity or inhibition compared to the assay reference” value (μ OPIOID REC.) of the same compound?
**A.** 16%

**Q.** What about the “ADENOSINE A3 REC. percent activity or inhibition compared to the assay reference” value (ADENOSINE A3 REC.) of the same compound?
**A.** 7%

**Q.** And the “CHOLECYSTOKININ 1 REC. percent activity or inhibition compared to the assay reference” value (CHOLECYSTOKININ 1 REC.)?
**A.** 4%

**Q.** And the “selectivity toward MAGL over off-targets and closely related brain hydrolases” value [1]?
**A.** high selectivity

**Q.** What about the “CYCLO OXYGENASE 2 percent activity or inhibition compared to the assay reference” value (CYCLO OXYGENASE 2) of the same compound?
**A.** 6%
